For 24 compounds, IC50 results are on record in patent US9242984B2, “Pyrazolyl derivatives as Syk inhibitors” (Merck Sharp & Dohme Corp., priority 2012, dated 2016).

The test concerns the target T1, recombinant human Syk (GST-hSyk fusion protein) (Homo sapiens, UniProt P43405).
T1 construct: purchased Carna Biosciences 08-176
Nature of the test: Homogeneous Time-Resolved Fluorescence (HTRF) assay for the recombinant human Syk enzyme. It counts as biochemical. Conditions: IC50 class; 10-dose titration, 25 μM ATP; read-out: rhSYK Activity. The method in brief: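 GST-hSyk (5 pM) preincubated 10 min with compound (0.1% DMSO) in 15 mM Tris-HCl pH 7.5, 2 mM DTT; reaction started with 250 nM biotinylated peptide, 5 mM Mg, 25 μM ATP, 45 min, room temperature. EDTA quench, Eu-anti-phosphotyrosine/SA-APC HTRF read after 30 min; IC50 from 10-dose titration (10 μM–0.508 nM), four-parameter fit.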
In general terms: In TR-FRET formats the signal depends on donor and acceptor labels being close together.
`Cc1cc(Nc2nccc(C(F)F)n2)cc(-c2cnn(Cc3cc[nH]c(=O)c3)c2)c1` [Example 2.72, 4-{[4-(3-{[4-(difluoromethyl)pyrimidin-2-yl]amino}-5-methylphenyl)-1H-pyrazol-1-yl]methyl}pyridin-2(1H)-one]: the IC50 is at most 100 nM.

Turning to `Cc1cc(Nc2nccc(C(F)F)n2)cc(-c2cnn(CC3CC(=O)NC3=O)c2)c1` (stereo not drawn) [Example 2.73, 3-{[4-(3-{[4-(difluoromethyl)pyrimidin-2-yl]amino}-5-methylphenyl)-1H-pyrazol-1-yl]methyl}pyrrolidine-2,5-dione], the IC50 was at most 100 nM.

As to `Cc1cc(Nc2nccc(C(F)F)n2)cc(-c2cnn(CC3OC(=O)NC3=O)c2)c1` (stereo not drawn) [Example 2.74, 5-{[4-(3-{[4-(difluoromethyl)pyrimidin-2-yl]amino}-5-methylphenyl)-1H-pyrazol-1-yl]methyl}-1,3-oxazolidine-2,4-dione], the IC50 was at most 100 nM.

`Cc1cc(Nc2nccc(C(F)F)n2)cc(-c2cnn(CC3OC(=O)NC3=O)c2)c1` (stereo not drawn) [Example 2.75, 5-{[4-(3-{[4-(difluoromethyl)pyrimidin-2-yl]amino}-5-methylphenyl)-1H-pyrazol-1-yl]methyl}-1,3-oxazolidine-2,4-dione]: the IC50 is at most 100 nM.

As to `Cc1cc(Nc2nccc(C(F)F)n2)cc(-c2cnn(CC3CC(=O)NC3C)c2)c1` (stereo not drawn) [Example 2.76, 4-{[4-(3-{[4-(difluoromethyl)pyrimidin-2-yl]amino}-5-methylphenyl)-1H-pyrazol-1-yl]methyl}-5-methylpyrrolidin-2-one], the IC50 is at most 100 nM.

In the case of `Cc1cc(Nc2nccc(C(F)F)n2)cc(-c2cnn(CC3(C)CNC(=O)C3)c2)c1` (stereo not drawn) [Example 2.77, 4-{[4-(3-{[4-(difluoromethyl)pyrimidin-2-yl]amino}-5-methylphenyl)-1H-pyrazol-1-yl]methyl}-4-methylpyrrolidin-2-one], the IC50 is at most 100 nM.

As to `Cc1cc(Nc2nccc(C(F)F)n2)cc(-c2cnn(CC3CCNC(=O)O3)c2)c1` (stereo not drawn) [Example 2.78, 6-{[4-(3-{[4-(difluoromethyl)pyrimidin-2-yl]amino}-5-methylphenyl)-1H-pyrazol-1-yl]methyl}-1,3-oxazinan-2-one], the IC50 was at most 100 nM.

In the case of `Cc1cc(Nc2nccc(C(F)F)n2)cc(-c2cnn(CC3CC(=O)NC3C)c2)c1` (stereo not drawn) [Example 2.79, 4-{[4-(3-{[4-(difluoromethyl)pyrimidin-2-yl]amino}-5-methylphenyl)-1H-pyrazol-1-yl]methyl}-5-methylpyrrolidin-2-one], the IC50 was at most 100 nM.

For `Cc1cc(Nc2nccc(C(F)F)n2)cc(-c2cnn(CC3(C)CNC(=O)C3)c2)c1` (stereo not drawn) [Example 2.80, 4-{[4-(3-{[4-(difluoromethyl)pyrimidin-2-yl]amino}-5-methylphenyl)-1H-pyrazol-1-yl]methyl}-4-methylpyrrolidin-2-one], the IC50 is at most 100 nM.

Turning to `Cc1cc(Nc2nccc(C(F)F)n2)cc(-c2cnn(CC3CCNC(=O)O3)c2)c1` (stereo not drawn) [Example 2.81, 6-{[4-(3-{[4-(difluoromethyl)pyrimidin-2-yl]amino}-5-methylphenyl)-1H-pyrazol-1-yl]methyl}-1,3-oxazinan-2-one], the IC50 is at most 100 nM.

Consider `Cc1cc(Nc2nccc(C(F)F)n2)cc(-c2cnn(CCN)c2)c1` [Example 2.82, N-{3-[1-(2-aminoethyl)-1H-pyrazol-4-yl]-5-methylphenyl}-4-(difluoromethyl)pyrimidin-2-amine], for which the IC50 was at most 100 nM.

On to `Cc1cc(Nc2nccc(C(F)F)n2)cc(-c2cnn(C[C@@H]3CNCCO3)c2)c1` [Example 2.83, 4-(difluoromethyl)-N-(3-methyl-5-{1-[(2S)-morpholin-2-ylmethyl]-1H-pyrazol-4-yl}phenyl)pyrimidin-2-amine], for which the IC50 was at most 100 nM.

Take `Cc1cc(Nc2nccc(C(F)F)n2)cc(-c2cnn(C[C@H]3CNCCO3)c2)c1` [Example 2.84, 4-(difluoromethyl)-N-(3-methyl-5-{1-[(2R)-morpholin-2-ylmethyl]-1H-pyrazol-4-yl}phenyl)pyrimidin-2-amine]: the IC50 is at most 100 nM.

`Cc1cc(Nc2nccc(C(F)F)n2)cc(-c2cnn(CC(C)(C)N)c2)c1` [Example 2.85, N-{3-[1-(2-amino-2-methylpropyl)-1H-pyrazol-4-yl]-5-methylphenyl}-4-(difluoromethyl)pyrimidin-2-amine]: the IC50 was at most 100 nM.

As for `C[C@@](O)(CO)Cn1cc(-c2cccc(Nc3nccc(C(F)(F)F)n3)c2)cn1` [Example 2.86, (2S)-2-methyl-3-[4-(3-{[4-(trifluoromethyl)pyrimidin-2-yl]amino}phenyl)-1H-pyrazol-1-yl]propane-1,2-diol], the IC50 was at most 100 nM.

Regarding `Cc1cc(Nc2nccc(C(C)O)n2)cc(-c2cnn(C[C@](C)(O)CO)c2)c1` (stereo partly drawn) [Example 2.87, (2S)-3-[4-(3-{[4-(1-hydroxyethyl)pyrimidin-2-yl]amino}-5-methylphenyl)-1H-pyrazol-1-yl]-2-methylpropane-1,2-diol], the IC50 is at most 100 nM.

Take `COc1ccnc(Nc2cc(C)cc(-c3cnn(C[C@](C)(O)CO)c3)c2)n1` [Example 2.88, (2S)-3-(4-{3-[(4-methoxypyrimidin-2-yl)amino]-5-methylphenyl}-1H-pyrazol-1-yl)-2-methylpropane-1,2-diol]: the IC50 is at most 100 nM.

Consider `COc1nc(Nc2cc(C)cc(-c3cnn(C[C@](C)(O)CO)c3)c2)ncc1F` [Example 2.89, (2S)-3-(4-{3-[(5-fluoro-4-methoxypyrimidin-2-yl)amino]-5-methylphenyl}-1H-pyrazol-1-yl)-2-methylpropane-1,2-diol], for which the IC50 is at most 100 nM.

As for `Cc1cc(Nc2nccc(C3CC3)n2)cc(-c2cnn(C[C@](C)(O)CO)c2)c1` [Example 2.90, (2S)-3-(4-{3-[(4-cyclopropylpyrimidin-2-yl)amino]-5-methylphenyl}-1H-pyrazol-1-yl)-2-methylpropane-1,2-diol], the IC50 was at most 100 nM.

For the compound `C[C@@](O)(CO)Cn1cc(-c2cc(F)cc(Nc3nccc(C(F)(F)F)n3)c2)cn1` [Example 2.91, (2S)-3-[4-(3-fluoro-5-{[4-(trifluoromethyl)pyrimidin-2-yl]amino}phenyl)-1H-pyrazol-1-yl]-2-methylpropane-1,2-diol], the IC50 is at most 100 nM.

On to `C[C@@](O)(CO)Cn1cc(-c2cccc(Nc3nccc(C(F)F)n3)c2)cn1` [Example 2.92, (2S)-3-[4-(3-{[4-(difluoromethyl)pyrimidin-2-yl]amino}phenyl)-1H-pyrazol-1-yl]-2-methylpropane-1,2-diol], for which the IC50 is at most 100 nM.

Take `CC(O)c1ccnc(Nc2cccc(-c3cnn(C[C@](C)(O)CO)c3)c2)n1` (stereo partly drawn) [Example 2.93, (2S)-3-[4-(3-{[4-(1-hydroxyethyl)pyrimidin-2-yl]amino}phenyl)-1H-pyrazol-1-yl]-2-methylpropane-1,2-diol]: the IC50 was at most 100 nM.

Regarding `Cc1cc(Nc2ncc(F)c(C)n2)cc(-c2cnn(C[C@](C)(O)CO)c2)c1` [Example 2.94, (2S)-3-(4-{3-[(5-fluoro-4-methylpyrimidin-2-yl)amino]-5-methylphenyl}-1H-pyrazol-1-yl)-2-methylpropane-1,2-diol], the IC50 is at most 100 nM.

In the case of `Cc1ccnc(Nc2cccc(-c3cnn(C[C@](C)(O)CO)c3)c2)n1` [Example 2.95, (2S)-2-methyl-3-(4-{3-[(4-methylpyrimidin-2-yl)amino]phenyl}-1H-pyrazol-1-yl)propane-1,2-diol], the IC50 is 100 to 1000 nM.
